Results published in ChEMBL document CHEMBL1201862, “PubChem BioAssay data set” (2004).
Active and inactive are the calls of the source.

Assays:
[1] = molecular target: Cytochrome P450 2D6 (Homo sapiens, UniProt P10635);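 also: CYP2D6 member of a cytochrome P450 panel assay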
[2] = molecular target: T1, Corticotropin-releasing factor receptor 2/Corticotropin-releasing factor-binding protein (Homo sapiens, UniProt P24387+Q13324); assay: activators of CRF receptor 2 with binding protein – uHTS hits, confirmation (AID 602473); format: functional; details: read-out: EC50_Mean
T1 sequence (Q13324 whole entry): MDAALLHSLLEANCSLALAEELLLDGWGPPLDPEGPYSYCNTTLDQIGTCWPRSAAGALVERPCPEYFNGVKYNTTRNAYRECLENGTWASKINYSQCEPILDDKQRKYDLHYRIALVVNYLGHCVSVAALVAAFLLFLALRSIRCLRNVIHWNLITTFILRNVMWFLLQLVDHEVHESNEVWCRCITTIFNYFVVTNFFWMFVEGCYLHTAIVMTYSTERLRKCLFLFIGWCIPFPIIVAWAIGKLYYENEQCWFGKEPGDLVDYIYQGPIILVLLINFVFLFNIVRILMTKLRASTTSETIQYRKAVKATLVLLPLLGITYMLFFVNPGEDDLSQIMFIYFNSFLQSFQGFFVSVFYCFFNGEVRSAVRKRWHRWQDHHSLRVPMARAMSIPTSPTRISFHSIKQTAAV
T1 sequence (P24387 whole entry): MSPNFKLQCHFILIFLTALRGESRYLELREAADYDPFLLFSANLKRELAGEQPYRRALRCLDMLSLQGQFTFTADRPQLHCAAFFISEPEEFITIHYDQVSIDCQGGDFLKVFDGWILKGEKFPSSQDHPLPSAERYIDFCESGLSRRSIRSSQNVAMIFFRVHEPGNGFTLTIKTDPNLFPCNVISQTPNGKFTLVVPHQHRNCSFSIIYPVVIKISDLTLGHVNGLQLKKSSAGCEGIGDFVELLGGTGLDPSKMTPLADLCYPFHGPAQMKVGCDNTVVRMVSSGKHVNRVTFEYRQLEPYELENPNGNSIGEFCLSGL

[3] = molecular target: T1, Corticotropin-releasing factor receptor 2/Corticotropin-releasing factor-binding protein; assay: Dose Response confirmation of uHTS hits for small molecule antagonists of the CRF-binding protein and CRF-R2 receptor complex.; format: functional; details: read-out: IC50_Mean
[4] = system: Streptococcus; assay: GAS UMAA2166 growth inhibition – luminescence, BacTiterGlo, counter-screen for streptokinase expression inhibitor project, dose response (AID 1915); format: functional, organism-based;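 also: potency for reduction of bacterial viability or growth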
[5] = system: Streptococcus sp. 'group A'; assay: Streptococcus pyogenes SK(-)GAS viability under kanamycin – luminescence, BacTiterGlo, confirmation, counter-screen for streptokinase expression inhibitor project, dose response (AID 1900); format: functional, organism-based
[6] = cells; format: functional
[7] = molecular target: Cytochrome P450 2C19 (Homo sapiens, UniProt P33261); assay: Cytochrome panel assay with activity outcomes. Panel member name: p450-cyp2c19 Compounds with AC50 equal or less than 10 uM are considered active; format: functional; details: read-out: AC50
Chain of Cytochrome P450 2C19 (P33261 whole entry): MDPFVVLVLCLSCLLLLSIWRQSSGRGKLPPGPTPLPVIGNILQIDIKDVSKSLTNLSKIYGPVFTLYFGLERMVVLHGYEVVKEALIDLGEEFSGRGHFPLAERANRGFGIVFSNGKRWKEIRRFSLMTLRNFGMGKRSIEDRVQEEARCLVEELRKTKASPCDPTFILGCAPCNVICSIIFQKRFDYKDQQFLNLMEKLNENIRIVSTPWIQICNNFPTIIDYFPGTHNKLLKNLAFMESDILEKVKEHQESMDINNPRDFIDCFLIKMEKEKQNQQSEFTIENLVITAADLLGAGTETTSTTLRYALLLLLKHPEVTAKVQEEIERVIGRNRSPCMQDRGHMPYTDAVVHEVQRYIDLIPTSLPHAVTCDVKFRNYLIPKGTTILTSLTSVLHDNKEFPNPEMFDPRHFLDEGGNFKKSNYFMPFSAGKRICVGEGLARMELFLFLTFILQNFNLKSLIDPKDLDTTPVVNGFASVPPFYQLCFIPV

[8] = molecular target: T2, Cytochrome P450 1A2 (Homo sapiens, UniProt P05177);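 also: PubChem cytochrome P450 panel assay, CYP1A2 panel member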
T2 sequence (P05177 whole entry): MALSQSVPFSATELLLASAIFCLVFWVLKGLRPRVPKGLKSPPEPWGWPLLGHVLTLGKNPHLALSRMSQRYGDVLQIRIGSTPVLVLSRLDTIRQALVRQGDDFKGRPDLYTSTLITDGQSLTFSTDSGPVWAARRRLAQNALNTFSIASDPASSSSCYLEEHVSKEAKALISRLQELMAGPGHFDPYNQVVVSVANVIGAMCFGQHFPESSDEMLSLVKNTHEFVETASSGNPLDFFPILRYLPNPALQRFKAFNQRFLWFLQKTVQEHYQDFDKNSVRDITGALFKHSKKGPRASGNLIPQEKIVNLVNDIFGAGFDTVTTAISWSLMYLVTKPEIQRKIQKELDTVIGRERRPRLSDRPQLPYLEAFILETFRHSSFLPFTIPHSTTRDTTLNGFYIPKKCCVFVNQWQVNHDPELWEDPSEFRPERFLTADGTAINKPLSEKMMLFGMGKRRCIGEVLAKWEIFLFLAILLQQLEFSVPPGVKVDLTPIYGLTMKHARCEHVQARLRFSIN

[9] = molecular target: Cytochrome P450 2C9 (Homo sapiens, UniProt P11712)
Chain of Cytochrome P450 2C9 (P11712 whole entry): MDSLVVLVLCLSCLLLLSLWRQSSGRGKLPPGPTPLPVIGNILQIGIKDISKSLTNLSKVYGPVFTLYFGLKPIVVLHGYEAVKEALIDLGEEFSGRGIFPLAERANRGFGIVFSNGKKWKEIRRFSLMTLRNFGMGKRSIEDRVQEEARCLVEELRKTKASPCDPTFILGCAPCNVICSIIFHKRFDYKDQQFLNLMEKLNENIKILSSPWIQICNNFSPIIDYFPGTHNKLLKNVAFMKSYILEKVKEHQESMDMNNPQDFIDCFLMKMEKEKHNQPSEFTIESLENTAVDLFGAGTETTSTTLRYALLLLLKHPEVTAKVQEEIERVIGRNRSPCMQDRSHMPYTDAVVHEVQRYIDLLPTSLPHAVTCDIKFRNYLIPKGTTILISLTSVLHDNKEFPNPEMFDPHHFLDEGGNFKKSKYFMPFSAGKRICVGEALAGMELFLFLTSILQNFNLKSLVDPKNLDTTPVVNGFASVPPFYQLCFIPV

[10] = molecular target: Cytochrome P450 3A4 (Homo sapiens, UniProt P08684);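 also: CYP3A4 tested as one member of a cytochrome P450 panel screen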
Chain of Cytochrome P450 3A4 (P08684 whole entry): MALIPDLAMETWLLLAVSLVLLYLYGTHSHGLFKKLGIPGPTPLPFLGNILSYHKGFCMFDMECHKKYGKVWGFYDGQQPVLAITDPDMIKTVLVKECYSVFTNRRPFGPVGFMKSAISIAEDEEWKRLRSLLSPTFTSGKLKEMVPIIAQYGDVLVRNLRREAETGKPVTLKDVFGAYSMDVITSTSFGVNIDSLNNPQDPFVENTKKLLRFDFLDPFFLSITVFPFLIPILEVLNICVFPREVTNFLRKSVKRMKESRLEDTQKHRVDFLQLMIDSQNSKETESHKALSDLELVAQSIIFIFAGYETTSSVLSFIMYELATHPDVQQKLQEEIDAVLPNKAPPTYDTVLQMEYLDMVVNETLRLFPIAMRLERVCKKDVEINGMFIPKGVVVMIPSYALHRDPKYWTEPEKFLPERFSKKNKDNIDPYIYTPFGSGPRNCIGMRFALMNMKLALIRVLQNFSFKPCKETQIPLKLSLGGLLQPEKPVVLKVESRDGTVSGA

[11] = molecular target: T3, Protein RecA (Mycobacterium tuberculosis, UniProt P9WHJ3); assay: Fluorescence Cell-Free Homogeneous Dose Retest to Identify Inhibitors of RecA-Intein Splicing Activity. [Related pubchem assays (depositor defined):AID2097, AID2223, AID489010, AID492950]; format: functional
T3 sequence (P9WHJ3 whole entry): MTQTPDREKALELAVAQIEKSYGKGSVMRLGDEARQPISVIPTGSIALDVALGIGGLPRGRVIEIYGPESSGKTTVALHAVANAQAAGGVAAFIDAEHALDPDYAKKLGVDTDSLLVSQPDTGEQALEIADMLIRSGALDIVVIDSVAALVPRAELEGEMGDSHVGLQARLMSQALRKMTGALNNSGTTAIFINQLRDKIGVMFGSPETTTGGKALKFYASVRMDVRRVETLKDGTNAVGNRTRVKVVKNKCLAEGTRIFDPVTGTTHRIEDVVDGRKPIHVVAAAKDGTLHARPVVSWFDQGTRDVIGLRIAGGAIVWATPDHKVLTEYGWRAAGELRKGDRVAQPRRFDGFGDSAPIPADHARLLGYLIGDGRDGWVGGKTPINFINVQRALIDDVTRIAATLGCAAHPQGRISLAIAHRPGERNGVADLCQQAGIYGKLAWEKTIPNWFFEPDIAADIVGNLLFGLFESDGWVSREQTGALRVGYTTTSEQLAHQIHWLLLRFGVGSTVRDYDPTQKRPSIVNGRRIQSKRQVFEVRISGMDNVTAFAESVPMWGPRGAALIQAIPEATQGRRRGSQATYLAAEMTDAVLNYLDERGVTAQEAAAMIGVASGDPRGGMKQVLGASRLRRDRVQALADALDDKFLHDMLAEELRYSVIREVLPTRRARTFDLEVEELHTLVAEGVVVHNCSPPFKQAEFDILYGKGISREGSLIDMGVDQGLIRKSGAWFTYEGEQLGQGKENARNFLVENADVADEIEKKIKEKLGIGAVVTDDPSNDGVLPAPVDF

[12] = molecular target: T4, Replicative DNA helicase DnaB (Mycobacterium tuberculosis, UniProt P9WMR3); assay: DnaB intein splicing inhibitors, dose response, biochemical, cell-free fluorescence (AID 449749); format: functional
T4 sequence (P9WMR3 whole entry): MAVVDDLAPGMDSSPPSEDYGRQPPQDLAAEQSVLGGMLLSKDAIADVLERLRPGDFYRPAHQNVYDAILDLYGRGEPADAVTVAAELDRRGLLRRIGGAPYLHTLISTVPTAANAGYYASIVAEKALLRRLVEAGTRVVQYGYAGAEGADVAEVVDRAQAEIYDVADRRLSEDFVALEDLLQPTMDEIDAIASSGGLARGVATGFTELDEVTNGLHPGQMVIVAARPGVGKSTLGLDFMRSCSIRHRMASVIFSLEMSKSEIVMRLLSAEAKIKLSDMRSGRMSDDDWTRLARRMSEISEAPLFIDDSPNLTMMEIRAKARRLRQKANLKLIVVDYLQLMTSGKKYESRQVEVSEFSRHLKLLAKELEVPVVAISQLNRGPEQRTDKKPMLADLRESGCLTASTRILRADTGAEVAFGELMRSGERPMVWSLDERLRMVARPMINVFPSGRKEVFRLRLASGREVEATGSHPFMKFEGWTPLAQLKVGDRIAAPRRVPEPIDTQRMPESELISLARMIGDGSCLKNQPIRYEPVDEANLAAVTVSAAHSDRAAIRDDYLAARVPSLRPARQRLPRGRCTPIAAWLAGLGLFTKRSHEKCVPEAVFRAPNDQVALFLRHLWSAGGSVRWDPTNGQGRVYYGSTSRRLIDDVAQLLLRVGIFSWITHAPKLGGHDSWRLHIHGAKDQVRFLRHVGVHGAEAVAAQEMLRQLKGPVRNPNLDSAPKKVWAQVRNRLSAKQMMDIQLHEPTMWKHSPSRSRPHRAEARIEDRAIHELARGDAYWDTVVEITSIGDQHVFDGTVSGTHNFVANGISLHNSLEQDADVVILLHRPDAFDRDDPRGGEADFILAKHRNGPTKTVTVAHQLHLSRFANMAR

Chain of Cytochrome P450 2D6 (P10635 whole entry): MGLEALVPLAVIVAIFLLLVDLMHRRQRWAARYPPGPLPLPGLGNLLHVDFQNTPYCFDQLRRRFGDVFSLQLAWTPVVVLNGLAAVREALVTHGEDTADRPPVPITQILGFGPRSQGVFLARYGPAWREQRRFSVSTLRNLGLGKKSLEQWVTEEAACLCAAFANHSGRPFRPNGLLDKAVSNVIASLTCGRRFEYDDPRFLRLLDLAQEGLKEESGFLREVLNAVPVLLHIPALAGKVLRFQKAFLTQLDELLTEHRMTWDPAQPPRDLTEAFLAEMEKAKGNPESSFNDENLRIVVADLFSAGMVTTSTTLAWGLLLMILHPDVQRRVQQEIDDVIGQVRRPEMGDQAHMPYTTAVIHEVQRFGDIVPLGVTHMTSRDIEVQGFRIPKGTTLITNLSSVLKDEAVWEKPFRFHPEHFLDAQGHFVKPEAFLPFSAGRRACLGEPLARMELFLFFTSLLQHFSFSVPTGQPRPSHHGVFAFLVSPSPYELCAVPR

For `CN1CCc2cccc(Cl)c2CC1`, the AC50 [1] was 31.6 µM (inconclusive).

With `NC(=O)CS(=O)(=O)c1nc2ccccc2n1Cc1ccccc1F` the EC50 [2] was > 53 µM (inactive) and the IC50 [3] was > 47.1 µM (inactive).

For `Cc1nnc(SC(C(=O)Nc2cc(Cl)cc(Cl)c2)c2ccccc2)nc1O` (centres undefined), the EC50 [4] was > 150 µM (not active) and the EC50 [5] was 10.6 µM (active).

With `FC(F)(F)c1ccccc1-c1nc(NCCN2CCOCC2)c2ccccc2n1` the AC50 [1] was 31.6 µM (inconclusive).

For `Cc1cc(C(=O)COc2cccc3cccnc23)c(C)n1C`, the IC50 [6] was 6.66 µM (active) and the EC50 [2] was > 53 µM (inactive).

For `O=C(c1n[nH]c(=O)c2ccccc12)N1CCN(C2c3ccccc3-c3ccccc32)CC1`, the AC50 [1] was 31.6 µM (inconclusive).

With `Cc1cnc(CNc2nc(-c3ccccc3C(F)(F)F)nc3ccccc23)cn1` the AC50 [7] was 39.8 µM (inconclusive) and the AC50 [1] was 25.1 µM (inconclusive).

For `C[C@@H](C(=O)O)c1ccc(C(=O)c2ccccc2)s1`, the AC50 [8] was 0.251 µM (inconclusive), the AC50 [9] was 15.8 µM (inconclusive) and the AC50 [1] was 7.94 µM (inconclusive). The AC50 [10] was 12.6 µM (inconclusive).

With `CCCCCCCCCCCCC(=O)N1CCCC[C@H]1CNC(=O)[C@@H](N)CCCCN` the AC50 [8] was 31.6 µM (inconclusive), the AC50 [9] was 10 µM (inconclusive) and the AC50 [1] was 25.1 µM (inconclusive).

For `CCOc1ccc(C2C(C(=O)O)c3ccccc3C(=O)N2CCN2CCOCC2)cc1` (centres undefined), the AC50 [1] was 25.1 µM (inconclusive).

For `CCOC(=O)c1nnc(-c2ccccc2)nc1N1CC(C)OC(C)C1` (centres undefined), the EC50 [2] was > 53 µM (inactive) and the IC50 [3] was > 47.1 µM (inactive).

For `O=C(c1cc(C(F)(F)F)cc(C(F)(F)F)c1)N1CCC2(CCCN(c3ncccn3)C2)CC1`, the AC50 [8] was 31.6 µM (inconclusive), the AC50 [7] was 20 µM (inconclusive) and the AC50 [1] was 10 µM (inconclusive). The AC50 [10] was 15.8 µM (inconclusive).

With `Fc1ccc(Br)cc1C1C=C(c2ccc(Br)cc2)Nc2ncnn21` (centres undefined) the EC50 [2] was > 53 µM (inactive).

For `COc1ccc(CNC(=O)CCc2nc3cc(S(=O)(=O)N(C)C)ccc3n2C)cc1OC`, the EC50 [2] was > 53 µM (inactive) and the IC50 [3] was > 47.1 µM (inactive).

In the case of `Cc1cccc(CNc2ccnc(-c3cccc(C#N)c3)n2)c1`, the AC50 [9] is reported as 0.794 µM (inconclusive) and the AC50 [1] is reported as 25.1 µM (inconclusive).

With `COc1cccc(-c2cncnc2NCc2cccnc2)c1` the AC50 [1] was 20 µM (inconclusive).

With `COc1ccc(CNC(=O)C(c2ccc(C)o2)N(C(=O)c2snc(C(N)=O)c2N)c2ccccc2OC)cc1` (centres undefined) the EC50 [11] was > 380 µM (inactive) and the AC50 [12] was > 380 µM (inactive).

With `Clc1ccccc1-c1nc(NCCN2CCOCC2)c2ccccc2n1` the AC50 [7] was 25.1 µM (inconclusive) and the AC50 [1] was 20 µM (inconclusive).

In the case of `O=C(Oc1ccccc1C(=O)Nc1ccccc1)c1ccccc1Br`, the EC50 [11] is reported as 8.13 µM (active) and the AC50 [12] is reported as 7.25 µM (active).

For `CN(C)C(=O)c1ccc(-c2nccc(NCc3cccs3)n2)cc1`, the AC50 [7] was 20 µM (inconclusive) and the AC50 [1] was 20 µM (inconclusive).

With `CCOc1cccc(NC(=O)CSc2nc(C)c3c(c2C#N)CCCC3)c1` the AC50 [7] was 0.178 µM (inconclusive) and the AC50 [1] was 0.0794 µM (inconclusive).

With `CCCc1n[nH]c2c1C(CCC)C(C#N)=C(N)O2` (centres undefined) the EC50 [11] was 7.46 µM (active) and the AC50 [12] was 20.5 µM (active).

With `CC(Nc1ccc(Br)cc1)C(=O)Nc1cccc(S(=O)(=O)N2CCOCC2)c1` (centres undefined) the EC50 [2] was > 53 µM (inactive) and the IC50 [3] was > 47.1 µM (inactive).

For `Cc1cc(C)c2c(-n3cccc3)nn(CC#N)c2n1`, the AC50 [9] was 14.1 µM (inconclusive), the AC50 [1] was 10 µM (inconclusive) and the AC50 [10] was 15.8 µM (inconclusive).

With `O=C(NCCc1ccccc1)c1cnc2ccccc2c1O` the EC50 [2] was > 53 µM (inactive).

For `COc1cc(/C=N\NC(=O)c2ccccc2F)ccc1Oc1ccc([N+](=O)[O-])cn1`, the EC50 [11] was > 380 µM (inactive) and the AC50 [12] was 133 µM (active).

For `Cc1cc(-c2ccc(/C=N/n3cnnc3)o2)c([N+](=O)[O-])cc1C`, the AC50 [1] was 11.2 µM (inconclusive).

With `Cc1nnc(N/N=C/c2cccc(OCc3ccc(Cl)c(Cl)c3)c2)n1N` the EC50 [11] was 4.81 µM (active), the IC50 [6] was 5.42 µM (active) and the AC50 [12] was 8.86 µM (active).

With `C/C(=N\NC(=O)CC#N)c1cc2ccccc2oc1=O` the EC50 [11] was 2.97 µM (active) and the AC50 [12] was 3.44 µM (active).

For `O=C(O)[C@@H]1C[C@@H](C(=O)O)N1`, the AC50 [1] was 39.8 µM (inconclusive).

For `N#C/C(=C\c1c[nH]c2ccccc12)C(=O)c1ccc(O)c(O)c1`, the AC50 [9] was 31.6 µM (inconclusive), the AC50 [7] was 31.6 µM (inconclusive) and the AC50 [1] was 25.1 µM (inconclusive).

For `CCCCCCCCCOc1ccc2[nH]cc(CCN)c2c1`, the AC50 [9] was 25.1 µM (inconclusive), the AC50 [1] was 25.1 µM (inconclusive) and the AC50 [10] was 39.8 µM (inconclusive).
